Results on 21 compounds are retold here after PubChem BioAssay AID330 (DTP/NCI, 2004).

Where “and” joins values, the source holds several entries; their conditions need not be identical. Identical values can stand only once. Toxic doses and inconclusive results are not listed.

The experiment concerns P388 leukemia ip, CD2F1 mice, survival T/C. As to the kind of experiment: NCI In Vivo Anticancer Drug Screen. Data for tumor model P388 Leukemia (intraperitoneal) in CD2F1 (CDF1) mice. To be noted: endpoint: median survival time, higher = longer survival. The method in brief: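 Mice carrying the transplanted tumor received test compound or vehicle. Survival was recorded in each group, and the value is the treated-group measurement divided by that of the vehicle-treated control group.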

[1] abbreviates: dose: 60.0 mg/kg/injection, schedule: Q01DX005 (ip), vehicle: Klucel (hydroxypropylcellulose) (HPC).
Where [2] appears, read: dose: 50.0 mg/kg/injection, schedule: Q01DX005 (ip), vehicle: saline with Tween-80.
Setting [3] is: dose: 100.0 mg/kg/injection, schedule: Q01DX005 (ip), vehicle: saline with Tween-80.
Setting [4] is: dose: 200.0 mg/kg/injection, schedule: Q01DX005 (ip), vehicle: saline with Tween-80.
Where [5] appears, read: dose: 100.0 mg/kg/injection, schedule: Q01DX009 (ip), vehicle: saline.
[6] abbreviates: dose: 200.0 mg/kg/injection, schedule: Q01DX009 (ip), vehicle: saline.
The mark [7] stands for this setting: dose: 400.0 mg/kg/injection, schedule: Q01DX009 (ip), vehicle: saline.
Setting [8] is: dose: 50.0 mg/kg/injection, schedule: Q01DX009 (ip), vehicle: saline with Tween-80.
[9] abbreviates: dose: 100.0 mg/kg/injection, schedule: Q01DX009 (ip), vehicle: saline with Tween-80.
Where [10] appears, read: dose: 200.0 mg/kg/injection, schedule: Q01DX009 (ip), vehicle: saline with Tween-80.
The mark [11] stands for this setting: dose: 60.0 mg/kg/injection, schedule: Q01DX005 (ip), vehicle: saline with Tween-80.
The mark [12] stands for this setting: dose: 120.0 mg/kg/injection, schedule: Q01DX005 (ip), vehicle: saline with Tween-80.
Where [13] appears, read: dose: 240.0 mg/kg/injection, schedule: Q01DX005 (ip), vehicle: saline with Tween-80.

For `CCOC1N=C(c2ccccc2)c2cc(Cl)ccc2NC1=O` (stereo not given), the T/C (dose: 50.0 mg/kg/injection, schedule: Q01DX009 (ip), vehicle: Klucel (hydroxypropylcellulose) (HPC)) was 101 % of control; the T/C (dose: 100.0 mg/kg/injection, schedule: Q01DX009 (ip), vehicle: Klucel (hydroxypropylcellulose) (HPC)) is 95 % of control; the T/C (dose: 200.0 mg/kg/injection, schedule: Q01DX009 (ip), vehicle: Klucel (hydroxypropylcellulose) (HPC)) is 93 % of control.

For `CC1=NN(c2ccccc2)C(=O)C1C1c2ccccc2S(=O)(=O)c2ccccc21` (stereo not given), the T/C was 97 % of control under setting [1] and 87 % of control (dose: 120.0 mg/kg/injection, schedule: Q01DX005 (ip), vehicle: Klucel (hydroxypropylcellulose) (HPC)).

Consider `COc1cccc(OC)c1C(=O)Nc1cccc(NC(=O)c2c(OC)cccc2OC)n1`, for which the T/C under setting [2] was 95 % of control, the T/C under setting [3] is 93 % of control and the T/C under setting [4] was 93 % of control.

Regarding `N#CC1CC(=O)c2ccccc2C1=O` (stereo not given), the T/C is, setting by setting: (dose: 50.0 mg/kg/injection, schedule: Q01DX005 (ip), vehicle: Klucel (hydroxypropylcellulose) (HPC)) 102 % of control; (dose: 100.0 mg/kg/injection, schedule: Q01DX005 (ip), vehicle: Klucel (hydroxypropylcellulose) (HPC)) 104 % of control; (dose: 200.0 mg/kg/injection, schedule: Q01DX005 (ip), vehicle: Klucel (hydroxypropylcellulose) (HPC)) 108 % of control.

With `Cc1cnc(C(N)=O)c(=O)[nH]1`, the T/C is, setting by setting: under setting [5], 95 % of control; (dose: 100.0 mg/kg/injection, schedule: Q04DX003 (ip), vehicle: saline) 105 % of control; under setting [6], 100 % of control; (dose: 200.0 mg/kg/injection, schedule: Q04DX003 (ip), vehicle: saline) 100 % of control; under setting [7], 100 % of control; (dose: 400.0 mg/kg/injection, schedule: Q04DX003 (ip), vehicle: saline) 100 % of control.

Consider `CC1=CC(C)(C)Nc2ccc(CSc3ccccc3)cc21`, for which the T/C is, setting by setting: (dose: 50.0 mg/kg/injection, schedule: Q01DX009 (ip), vehicle: DMSO) 111 % of control; under setting [8], 104 % of control; under setting [9], 110 % of control; under setting [10], 96 % of control.

As to `Cc1ccc2c(c1)C(=O)N(CC[P+](c1ccccc1)(c1ccccc1)c1ccccc1)C2=O`, the T/C runs as follows: (dose: 0.78 mg/kg/injection, schedule: Q01DX009 (ip), vehicle: water) 100 % of control and 113 % of control; (dose: 1.56 mg/kg/injection, schedule: Q01DX009 (ip), vehicle: water) 117 % of control and 120 % of control; (dose: 3.13 mg/kg/injection, schedule: Q01DX009 (ip), vehicle: water) 121 % of control; (dose: 12.5 mg/kg/injection, schedule: Q01DX009 (ip), vehicle: water) 118 % of control.

On to `N#CC(C#N)=C1CCNc2ccccc21`, for which the T/C is 95 % of control under setting [9]; 95 % of control under setting [10]; 95 % of control (dose: 400.0 mg/kg/injection, schedule: Q01DX009 (ip), vehicle: saline with Tween-80).

Turning to `CN(C)c1cc(O)c(-n2c3cc(=O)c(N(C)C)cc-3nc3ccccc32)cc1O`, the T/C (dose: 3.12 mg/kg/injection, schedule: Q01DX009 (ip), vehicle: saline) is 100 % of control; the T/C (dose: 6.25 mg/kg/injection, schedule: Q01DX009 (ip), vehicle: saline with Tween-80) is 93 % of control; the T/C (dose: 6.25 mg/kg/injection, schedule: Q01DX009 (ip), vehicle: saline) was 96 % of control; the T/C (dose: 12.5 mg/kg/injection, schedule: Q01DX009 (ip), vehicle: saline with Tween-80) was 90 % of control; the T/C (dose: 12.5 mg/kg/injection, schedule: Q01DX009 (ip), vehicle: saline) is 100 % of control; the T/C (dose: 25.0 mg/kg/injection, schedule: Q01DX009 (ip), vehicle: saline with Tween-80) was 91 % of control. The T/C is, setting by setting: (dose: 25.0 mg/kg/injection, schedule: Q01DX009 (ip), vehicle: saline) 115 % of control; (dose: 50.0 mg/kg/injection, schedule: Q01DX009 (ip), vehicle: saline) 120 % of control; under setting [5], 90 % of control.

On to `Cc1ccc(S(=O)(=O)N2CC3CC(/C=C/c4ccnc5ccccc45)CC(C3)C2)cc1` (stereo not given), for which the T/C (dose: 25.0 mg/kg/injection, schedule: Q01DX001 (ip), vehicle: suspension in saline) is 96 % of control; the T/C (dose: 50.0 mg/kg/injection, schedule: Q01DX001 (ip), vehicle: suspension in saline) is 102 % of control; the T/C (dose: 100.0 mg/kg/injection, schedule: Q01DX001 (ip), vehicle: suspension in saline) was 95 % of control.

In the case of `COc1ccc(N2C(=O)CCSC23C(=O)N(CN2CCOCC2)c2ccccc23)cc1` (stereo not given), the T/C is, setting by setting: under setting [2], 103 % of control; under setting [3], 106 % of control; under setting [4], 95 % of control.

On to `CCCCCCC(=O)/C=C/c1ccc(Br)cc1`, for which the T/C is, setting by setting: under setting [2], 104 % of control; under setting [3], 104 % of control; under setting [4], 97 % of control.

On to `OC1CCCC1NC1CCCCC1` (stereo not given), for which the T/C by setting is: (dose: 15.0 mg/kg/injection, schedule: Q01DX005 (ip), vehicle: Klucel (hydroxypropylcellulose) (HPC)) 102 % of control; (dose: 30.0 mg/kg/injection, schedule: Q01DX005 (ip), vehicle: Klucel (hydroxypropylcellulose) (HPC)) 102 % of control; under setting [1], 104 % of control.

With `Cc1ccc2c(c1)C(=S)NC(=O)C2`, the T/C was 87 % of control (dose: 12.5 mg/kg/injection, schedule: Q01DX009 (ip), vehicle: distilled water + Tween-80); 93 % of control (dose: 50.0 mg/kg/injection, schedule: Q01DX009 (ip), vehicle: distilled water + Tween-80); 91 % of control (dose: 100.0 mg/kg/injection, schedule: Q01DX009 (ip), vehicle: distilled water + Tween-80); 95 % of control (dose: 200.0 mg/kg/injection, schedule: Q01DX009 (ip), vehicle: distilled water + Tween-80).

Consider `CN(Cc1cnc2nc(N)nc(N)c2n1)c1c(Cl)cc(C(=O)NC(CCC(=O)O)C(=O)O)cc1Br` (stereo not given), for which the T/C was 183 % of control (dose: 0.3 mg/kg/injection, schedule: Q01DX003 (ip), vehicle: saline); 177 % of control (dose: 0.4 mg/kg/injection, schedule: Q01DX003 (ip), vehicle: saline); 170 % of control (dose: 100.0 mg/kg/injection, schedule: Q04DX003 (ip), vehicle: saline with Tween-80); 170 % of control (dose: 200.0 mg/kg/injection, schedule: Q04DX003 (ip), vehicle: saline with Tween-80); 162 % of control and 195 % of control (dose: 400.0 mg/kg/injection, schedule: Q04DX003 (ip), vehicle: saline with Tween-80); 154 % of control (dose: 600.0 mg/kg/injection, schedule: Q04DX003 (ip), vehicle: saline with Tween-80).

As for `O=C(Oc1ccccc1)N1CCCSC1=S`, the T/C reads like this: under setting [11], 98 % of control; under setting [12], 100 % of control.

For `CN(C)C1C(=O)c2ccccc2C1=O`, the T/C under setting [11] was 96 % of control, the T/C under setting [12] was 107 % of control and the T/C under setting [13] is 112 % of control.

As to `NC(CS/C(Cl)=C/Cl)C(=O)O` (stereo not given), the T/C (dose: 12.0 mg/kg/injection, schedule: Q01DX009 (ip), vehicle: saline with Tween-80) was 117 % of control and the T/C (dose: 27.0 mg/kg/injection, schedule: Q01DX009 (ip), vehicle: saline with Tween-80) is 117 % of control.

For `CC(=O)C1(C)CC=CCC1C(=O)O` (stereo not given), the T/C is 100 % of control under setting [5], 100 % of control under setting [6] and 100 % of control under setting [7].

For `NC(=O)N/N=C(/Cc1nc2ccccc2nc1C/C(=N/NC(N)=O)c1cccc2ccccc12)c1cccc2ccccc12`, the T/C reads like this: under setting [11], 99 % of control and 95 % of control; under setting [12], 100 % of control; under setting [13], 100 % of control and 91 % of control.

On to `CC(C)(C)C(=O)CC(Cc1nccc2ccccc12)c1ccco1` (stereo not given), for which the T/C was 113 % of control under setting [8], 106 % of control under setting [9] and 97 % of control under setting [10].
